Data set [1] deals with MCF-7 cell line (human breast adenocarcinoma). Kind of data set: MTT cytotoxicity assay, MCF-7 cells. Format: cell-based. Particulars: for IC50: Homo sapiens, read-out: IC 50 (μg/mL) MCF-7; for IC50 / IC 50 (μg/mL) MCF-7: MTT; for effect on cell viability in MCF-7 cells: different concentrations, Figure 6, 24 h. How it is done: (§1) FBS, PBS, trypsin, penicillin, streptomycin, DMSO, 3-[4,5-dimethyl thiazol-2-yl]-2,5-diphenyltetrazoliumbromide (MTT), Triton X-100, and RPMI-1640 medium supplemented with 10% heat inactivated FBS were purchased from Sigma-Aldrich. The AGS, HEK293, and MCF7 cell lines were purchased from the National Cell Bank of Iran, Pasteur Institute of Iran, Tehran, Iran.
(§2) In this research, the effects of synthesized compounds on the viability of MCF-7, AGS, and HEK cells were evaluated at various concentrations (0.39–200 μg/mL) utilizing 3-(4,5-dimethylthiazol-2-yl)-2,5-diphenyltetrazolium bromide (MTT) assay. After thawing, the cells were cultured in RPMI 1640 medium containing 10% FBS, penicillin (100 U/mL), and streptomycin ([…]) at 37 °C in a humidified 5% CO2 incubator. The cells were seeded in a 96-well plate at a density of 5000 cells per well (the cells were stained with trypan blue and counted with a hemocytometer). The cells were incubated overnight at 37 °C before cell viability testing. A stock suspension of each of the synthesized compounds at 50 mg/mL in distilled water was prepared. After that, fresh suspensions of different concentrations of the synthesized compounds (2-fold serial dilutions from 0.39 to 200 μg/mL) were made using serial dilutions of the stock suspensions of the synthesized compounds in the RPMI 1640 medium immediately before use. Next, 200 μL of suspension (different concentrations of synthesized compounds) was added to each well of the micropentaplicates. The cells were incubated for 24 and 48 h under the same conditions. Wells without any synthesized compounds served as a negative control. The experiments were performed in pentaplicate for each concentration. To assess cell survival, 100 μL of MTT solution (2 mg/mL in PBS) was added to each well and incubated for 3 h at 37 °C to produce insoluble formazan. Next, 100 μL of DMSO was added to dissolve the formazan crystals, and the absorbance was measured using an Infinite M200 ELISA plate reader (Tecan, Männedorf, Switzerland) at 570 nm, with 630 nm as a reference wave length. The percentage of cell viability was calculated via the formula (A test /A control ) ×100, in which A test is the average absorbance of the treated cells and A control is the average absorbance of the negative control.
(§3) Cytotoxicity assessment of the cell lines were performed in pentaplicate, and the results were computed as mean ±SD. The experimental results were analyzed using one-way ANOVA analysis in SPSS 16.0 for Windows (SPSS Inc., Chicago, IL, USA) and P <0.05 was considered significant. The IC 50 values were calculated by nonlinear regression analysis using Finney probit analysis in SPSS.

The test system of data set [2] is HEK293 cells (human embryonic kidney). Kind of data set: MTT cytotoxicity assay, HEK293 normal cells. The class given is cell-based. The conditions noted are these: for IC50: Homo sapiens, read-out: IC 50 (μg/mL) HEK293; for cytotoxicity against HEK293 cells compared to the other analogs: pyridine derivatives, Figure 6, 24 h. The method, then: as §1, §2, §3
Data set [3] concerns AGS cells (gastric adenocarcinoma). Briefly: MTT cytotoxicity assay, AGS cells. The class given is cell-based, human. Particulars: for IC50: Homo sapiens, AGS cells, MTT. How it is done: as §1
In this research, the effects of synthesized compounds on the viability of MCF-7, AGS, and HEK cells were evaluated at various concentrations (0.39–200 μg/mL) utilizing 3-(4,5-dimethylthiazol-2-yl)-2,5-diphenyltetrazolium bromide (MTT) assay. After thawing, the cells were cultured in RPMI 1640 medium containing 10% FBS, penicillin (100 U/mL), and streptomycin ([…]) at 37 °C in a humidified 5% CO2 incubator. The cells were seeded in a 96-well plate at a density of 5000 cells per well (the cells were stained with trypan blue and counted with a hemocytometer). The cells were incubated overnight at 37 °C before cell viability testing. A stock suspension of each of the synthesized compounds at 50 mg/mL in distilled water was prepared. […] Next, 100 μL of DMSO was added to dissolve the formazan crystals, and the absorbance was measured using an Infinite M200 ELISA plate reader (Tecan, Männedorf, Switzerland) at 570 nm, with 630 nm as a reference wave length. The percentage of cell viability was calculated via the formula (A test /A control ) ×100, in which A test is the average absorbance of the treated cells and A control is the average absorbance of the negative control.
as §3

Setting [4] is: MCF7, 24 h, MCF-7 cells, Table 7, 24 h per Figure 6.
The mark [5] stands for this setting: HEK293 cells, MTT, Table 7, 24 h per Figure 6.
Where [6] appears, read: MCF-7 cells, Table 7, 24 h per Figure 6.

Values after ≈ are worked out from the molar mass of the structure shown. Where two headings read alike, the source gives them in different places. Where only a bound is given, the exact number is not on record here.

For the compound `N#Cc1c(-c2ccccc2F)cc(-c2ccccc2)nc1N` [5g], the IC50 in data set [1] (setting [4]) stood at 71.9 µg/mL (≈ 249 µM); in data set [2] (setting [5]), 950 µg/mL (≈ 3280 µM). Also, the “effect on cell viability in MCF-7 cells” value in data set [1] was “considerable decrease in cell viability”. For the same compound, the “cytotoxicity against HEK293 cells compared to the other analogs” value in data set [2] is given as “less cytotoxic”.

In the case of `CCOC(=O)C1=C(C)NC(=O)NC1c1cccs1` (stereo not drawn) [4m], in data set [1] (setting [6]), the “IC 50 (μg/mL) MCF-7” value was 128.00 µg/mL (≈ 481 µM). The “IC 50 (μg/mL) HEK293” value in data set [2] (setting [5]) stood at 146.25 µg/mL (≈ 549 µM).

Take `CCOC(=O)C1=C(C)NC(=O)NC1c1c(Cl)cccc1Cl` (stereo not drawn) [4r]: the IC50 was 30 µg/mL (≈ 91.1 µM) in data set [3] (24 h, read-out: IC 50 (μg/mL) AGS (24 h)); 4.97 µg/mL (≈ 15.1 µM) in data set [3] (48 h, read-out: IC 50 (μg/mL) AGS (48 h)); 0.17 µg/mL (≈ 0.516 µM) in data set [1] (MCF7, MCF-7 cells, Table 6 (DHPMs 4j, 4r)); > 200 µg/mL in data set [2] (HEK293). The “death of AGS cells” value in data set [3] (after treatment for 24 and 48 h, different concentrations (Figure 5)) is listed as ≥ 50%.

On to `N#Cc1c(-c2cccc(Cl)c2)cc(-c2ccccc2)nc1N` [5c, 2-Amino-4-(3-chlorophenyl)-6-phenylnicotinonitrile], for which the melting point is 168 to 170 °C. For the same compound, in data set [1] (setting [4]), the IC50 was found to be 307 µg/mL (≈ 1000 µM). In data set [2] (setting [5]), the IC50 was > 1000 µg/mL.

The compound `N#Cc1c(-c2c(Cl)cccc2Cl)cc(-c2ccccc2)nc1N` [5l, 2-Amino-4-(2,6-dichlorophenyl)-6-phenylnicotinonitrile] came in with a melting point of 174 to 176 °C.

In the case of `N#Cc1c(-c2ccc(Cl)cc2Cl)cc(-c2ccccc2)nc1N` [5m, 2-Amino-4-(2,4-dichlorophenyl)-6-phenylnicotinonitrile], the melting point was in the range of 179 to 181 °C. In addition, the IC50 in data set [1] (setting [4]) stood at 82 µg/mL (≈ 241 µM). In addition, the “IC 50 (μg/mL) MCF-7” value in data set [1] (setting [6]) was determined as 82.90 µg/mL (≈ 244 µM). The “effect on cell viability in MCF-7 cells” value in data set [1] is “considerable decrease in cell viability”. In data set [2] (setting [5]), the IC50 came to 259 µg/mL (≈ 760 µM). Besides, the “cytotoxicity against HEK293 cells compared to the other analogs” value in data set [2] was “less cytotoxic”.
